Test system: adjuvant-induced arthritis
Details: high doses: naproxen 10 mg/kg, conjugate 18 mg/kg, oral daily on days 5-8 and 11-14; day 15

`COc1ccc2cc([C@H](C)C(=O)O)ccc2c1` [Naproxen, (S)-(+)-methoxy-α-methyl-2-naphthaleneacetic acid] was tested. Which “Reduction of swelling compared to control” value did it give?
Its value is “approximately 70%”.
